Data reported in US9237747B2, “Herbicidal compositions comprising 4-amino-3-chloro-5-fluoro-6-(4-chloro-2-fluoro-3-methoxyphenyl) pyridine-2-carboxylic acid or a derivative thereof and insecticides” (priority 2013, dated 2016).
Like-named read-outs stand apart in the source and are kept apart here.

Columns and labels:
LEFCH = experiment: whole plant or invertebrate; format: in vivo, Leptochloa chinensis; conditions: for pest or weed control at 140 g/ha / pest or weed control at 280 g/ha / pest or weed control at 560 g/ha: 22 DAA; for pest or weed control at 140 g/ha: 140 g ai/ha alone; for pest or weed control at 280 g/ha: 280 g ai/ha alone; for pest or weed control at 560 g/ha: 560 g ai/ha alone
Protocol: (§1) Seeds or nutlets of the desired test plant species were planted in a soil matrix prepared by mixing a loam or sandy loam soil (e.g., 28.6 percent silt, 18.8 percent clay, and 52.6 percent sand, with a pH of about 5.8 and an organic matter content of about 1.8 percent) and calcareous grit in an 80 to 20 ratio. The soil matrix was contained in plastic pots with a volume of 1 quart and a surface area of 83.6 square centimeters (cm^2). […] The plants were grown for 8-22 days in a greenhouse with an approximate 14 hour (h) photoperiod which was maintained at about 29° C. during the day and 26° C. during the night. Nutrients (Peters Excel® 15-5-15 5-Ca 2-Mg and iron chelate) were applied in the irrigation solution as needed and water was added on a regular basis. Supplemental lighting was provided with overhead metal halide 1000-Watt lamps as necessary. The plants were employed for testing when they reached the first through fourth true leaf stage.
(§2) Treatments consisted of the acid or esters of 4-amino-3-chloro-6-(4-chloro-2-fluoro-3-methoxyphenyl)-5-fluoropyridine-2-carboxylic acid (Compound A), each formulated as an SC (suspension concentrate), and various insecticidal components alone and in combination. Forms of compound A were applied on an acid equivalent basis.
(§3) For treatments comprised of formulated compounds, measured amounts of compounds were placed individually in 25 mL glass vials and diluted in a volume of 1.25% volume per volume (v/v) Agri-Dex® crop oil concentrate to obtain 12× stock solutions. […] Application solutions were prepared by adding an appropriate amount of each stock solution (e.g., 1 mL) and diluted to the appropriate final concentrations with the addition of […] of an aqueous mixture of 1.25% (v/v) crop oil concentrate so that the final spray solutions contained 1.25+/−0.05% (v/v) crop oil concentrate.
(§4) As required, additional water and/or 97:3 v/v acetone/DMSO was added to individual application solutions so that the final acetone and DMSO concentrations of the application solutions being compared were 8.1% and 0.25%, respectively.
(§5) All stock solutions and applications solutions were visually inspected for compound compatibility prior to application. Spray solutions were applied to the plant material with an overhead Mandel track sprayer equipped with 8002E nozzles calibrated to deliver 187 L/ha over an application area of 0.503 square meters (m^2) at a spray height of 18 to 20 inches (46 to 50 cm) above average plant canopy height. Control plants were sprayed in the same manner with the solvent blank.
(§6) The treated plants and control plants were placed in a greenhouse as described above and watered by sub-irrigation to prevent wash-off of the test compounds. After approximately 3 weeks, the condition of the test plants as compared to that of the untreated plants was determined visually and scored on a scale of 0 to 100 percent where 0 corresponds to no injury or growth inhibition and 100 corresponds to complete kill.
(§7) Colby's equation was used to determine the herbicidal effects expected from the mixtures (Colby, S. R. Calculation of the synergistic and antagonistic response of herbicide combinations. Weeds 1967, 15, 20-22.).
(§8) The following equation was used to calculate the expected activity of mixtures containing two active ingredients, A and B: Expected=A+B−(A×B/100)

IPOHE = format: in vivo, Ipomoea hederacea
Protocol: as §1, §2, §3, §4, §5, §6, §7, §8

ECHCO = experiment: Postemergence foliar-applied weed control, direct-seeded rice (greenhouse); format: in vivo, Echinochloa colonum; conditions: 300 g ai/ha alone
Protocol: as §1, §2, §3, §4, §5, §6, §7, §8

CYPRO = experiment: In-water applied weed control, transplanted paddy rice (greenhouse); format: in vivo, Cyperus rotundus; conditions: 21 DAA
Protocol: (§9) Weed seeds or nutlets of the desired test plant species were planted in puddled soil (mud) prepared by mixing a shredded, non-sterilized mineral soil (50.5 percent silt, 25.5 percent clay, and 24 percent sand, with a pH of about 7.6 and an organic matter content of about 2.9 percent) and water at a 1:1 volumetric ratio. The prepared mud was dispensed in 365 mL aliquots into 16-ounce (oz.) non-perforated plastic pots with a surface area of 86.59 square centimeters (cm^2) leaving a headspace of 3 centimeters (cm) in each pot. Rice seeds were planted in Sun Gro MetroMix® 306 planting mixture, which typically has a pH of 6.0 to 6.8 and an organic matter content of about 30 percent, in plastic plug trays. Seedlings at the second or third leaf stage of growth were transplanted into 860 mL of mud contained in 32-oz. non-perforated plastic pots with a surface area of 86.59 cm^2 4 days prior to herbicide application. The paddy was created by filling the headspace of the pots with 2.5 to 3 cm of water. When required to ensure good germination and healthy plants, a fungicide treatment and/or other chemical or physical treatment was applied. The plants were grown for 4-22 days in a greenhouse with an approximate 14 h photoperiod which was maintained at about 29° C. during the day and about 26° C. during the night. Nutrients were added as Osmocote® (17:6:10, N:P:K+minor nutrients) at 2 grams (g) per 16-oz. pot and 4 g per 32-oz. pot. Water was added on a regular basis to maintain the paddy flood, and supplemental lighting was provided with overhead metal halide 1000-Watt lamps as necessary. The plants were employed for testing when they reached the first through fourth true leaf stage.
Treatments consisted of the acid or esters of 4-amino-3-chloro-5-fluoro-6-(4-chloro-2-fluoro-3-methoxy-phenyl)pyridine-2-carboxylic acid (compound A) each formulated as an SC (suspension concentrate) and various herbicidal components alone and in combination. Forms of compound A were applied on an acid equivalent basis.
Other […] components were applied on an active ingredient basis and consisted of etofenprox (technical grade material) and sulfoxaflor formulated as Sulfoxaflor WG.
(§10) Treatment requirements for each compound or herbicidal component were calculated based upon the rates being tested, the concentration of active ingredient or acid equivalent in the formulation, an application volume of 2 mL per component per pot, and an application area of 86.59 cm^2 per pot.
For formulated compounds, a measured amount was placed in an individual 100 or 200 mL glass vial and was dissolved in a volume of 1.25% (v/v) AgriDex® crop oil concentrate to obtain application solutions.
For technical grade compounds, a weighed amount was placed in an individual 100 to 200 mL glass vial and was dissolved in a volume of acetone to obtain concentrated stock solutions.
Applications were made by injecting with a pipetter appropriate amounts of the application solutions, individually and sequentially, into the aqueous layer of the paddy. Control plants were treated in the same manner with the solvent blank. Applications were made so that all treated plant material received the same concentrations of acetone and crop oil concentrate.
The treated plants and control plants were placed in a greenhouse as described above and water was added as needed to maintain a paddy flood. After approximately 3 weeks the condition of the test plants as compared with that of the untreated plants was determined visually and scored on a scale of 0 to 100 percent where 0 corresponds to no injury or growth inhibition and 100 corresponds to complete kill.
Colby's equation was used to determine the herbicidal effects expected from the mixtures (Colby, S. R. Calculation of the synergistic and antagonistic response of herbicide combinations. Weeds 1967, 15, 20-22.). […]

ECHCG [1] = format: in vivo, Echinochloa crus-galli
Protocol: as §1, §2, §3, §4, §5, §6, §7, §8

CYPES = format: in vivo, Cyperus esculentus
Protocol: as §1, §2, §3, §4, §5, §6, §7, §8

ECHCG [2] = experiment: In-water applied weed control, transplanted paddy rice (greenhouse); format: in vivo, Echinochloa crus-galli
Protocol: as §9, with “stage. […]” for “stage.”
as §10
For formulated compounds, a measured amount was placed in an individual 100 or 200 mL glass vial and was dissolved in a volume of 1.25% (v/v) AgriDex® crop oil concentrate to obtain application solutions. […]
The treated plants and control plants were placed in a greenhouse as described above and water was added as needed to maintain a paddy flood. After approximately 3 weeks the condition of the test plants as compared with that of the untreated plants was determined visually and scored on a scale of 0 to 100 percent where 0 corresponds to no injury or growth inhibition and 100 corresponds to complete kill. […]

LEFPA = experiment: Postemergence foliar-applied weed control, direct-seeded rice (greenhouse); format: in vivo, Leptochloa panicoides
From the text: (§11) Seeds or nutlets of the desired test plant species were planted in a soil matrix prepared by mixing a loam or sandy loam soil (e.g., 28.6 percent silt, 18.8 percent clay, and 52.6 percent sand, with a pH of about 5.8 and an organic matter content of about 1.8 percent) and calcareous grit in an 80 to 20 ratio. The soil matrix was contained in plastic pots with a volume of 1 quart and a surface area of 83.6 square centimeters (cm^2). When required to ensure good germination and healthy plants, a fungicide treatment and/or other chemical or physical treatment was applied. The plants were grown for 8-22 days in a greenhouse with an approximate 14 hour (h) photoperiod which was maintained at about 29° C. during the day and 26° C. during the night. Nutrients (Peters Excel® 15-5-15 5-Ca 2-Mg and iron chelate) were applied in the irrigation solution as needed and water was added on a regular basis. Supplemental lighting was provided with overhead metal halide 1000-Watt lamps as necessary. The plants were employed for testing when they reached the first through fourth true leaf stage.
as §2
(§12) Treatment requirements were calculated based upon the rates being tested, the concentration of active ingredient or acid equivalent in the formulation, and a 12 milliliter (mL) application volume at a rate of 187 liters per hectare (L/ha).
as §3, §4, §5, §6, §7, §8

DIGSA = format: in vivo, Digitaria sanguinalis; conditions: 22 DAA
Protocol: as §1, §2, §3, §4, §5, §6, §7, §8

LEFFA = experiment: Postemergence foliar-applied weed control, direct-seeded rice (greenhouse); format: in vivo, Leptochloa fascicularis; conditions: 22 DAA
From the text: as §11, §2, §12, §3, §4, §5, §6, §7, §8

[3] = Dinebra chinensis, post-emergence, 528 h, read-out: Visual Weed Control (%) - 22 DAA LEFCH Obs
[4] = Dinebra chinensis, post-emergence, 528 h, second part of Table 18, read-out: Visual Weed Control (%) - 22 DAA LEFCH Obs

CCOc1ccc(C(C)(C)COCc2cccc(Oc3ccccc3)c2)cc1 [Etofenprox, 2-(4-ethoxyphenyl)-2-methylpropyl 3-phenoxybenzyl ether]
0%: Visual Weed Control (%) - 19 DAA LEFCH Obs (LEFCH; 300 g ai/ha alone) | pest or weed control at 150 g/ha (LEFCH; Dinebra chinensis, post-emergence, 528 h, 150 g ai/ha alone, read-out: Visual Weed Control (%) - 22 DAA LEFCH Obs) | Visual Weed Control (%) - 22 DAA IPOHE Obs (IPOHE; 75 g ai/ha alone) | Visual Weed Control (%) - 22 DAA IPOHE Obs (IPOHE; 150 g ai/ha alone) | Visual Weed Control (%) - 19 DAA ECHCO Obs (ECHCO) | Visual Weed Control (%) - 21 DAA CYPRO Obs (CYPRO; 75 g ai/ha alone) | Visual Weed Control (%) - 21 DAA CYPRO Obs (CYPRO; 150 g ai/ha alone) | Visual Weed Control (%) - 21 DAA CYPRO Obs (CYPRO; 300 g ai/ha alone) | Visual Weed Control (%) - 22 DAA ECHCG Obs (ECHCG [1]; 75 g ai/ha alone) | Visual Weed Control (%) - 22 DAA ECHCG Obs (ECHCG [1]; 150 g ai/ha alone) | Visual Weed Control (%) - 19 DAA ECHCG Obs (ECHCG [1]; 300 g ai/ha alone) | Visual Weed Control (%) - 22 DAA CYPES Obs (CYPES; 75 g ai/ha alone) | Visual Weed Control (%) - 22 DAA CYPES Obs (CYPES; 150 g ai/ha alone) | Visual Weed Control (%) - 21 DAA ECHCG Obs (ECHCG [2]; 75 g ai/ha alone) | Visual Weed Control (%) - 21 DAA ECHCG Obs (ECHCG [2]; 150 g ai/ha alone) | Visual Weed Control (%) - 21 DAA ECHCG Obs (ECHCG [2]; 300 g ai/ha alone)

CCOC(=O)CC(SP(=S)(OC)OC)C(=O)OCC (stereo not shown) [Malathion, S-1,2-bis(ethoxycarbonyl)ethyl O,O-dimethyl phosphorodithioate]
0%: pest or weed control at 140 g/ha (LEFCH; [3]) | pest or weed control at 140 g/ha (LEFCH; [4]) | pest or weed control at 280 g/ha (LEFCH; [3]) | pest or weed control at 280 g/ha (LEFCH; [4]) | pest or weed control at 560 g/ha (LEFCH; [3]) | pest or weed control at 560 g/ha (LEFCH; [4]) | Visual Weed Control (%) - 22 DAA LEFPA Obs (LEFPA; 140 g ai/ha alone) | Visual Weed Control (%) - 22 DAA LEFPA Obs (LEFPA; 280 g ai/ha alone) | Visual Weed Control (%) - 22 DAA LEFPA Obs (LEFPA; 560 g ai/ha alone) | Visual Weed Control (%) - 22 DAA DIGSA Obs (DIGSA; 140 g ai/ha alone) | Visual Weed Control (%) - 22 DAA DIGSA Obs (DIGSA; 140 g ai/ha alone, second part of Table 18) | Visual Weed Control (%) - 22 DAA DIGSA Obs (DIGSA; 280 g ai/ha alone) | Visual Weed Control (%) - 22 DAA DIGSA Obs (DIGSA; 280 g ai/ha alone, second part of Table 18) | Visual Weed Control (%) - 22 DAA DIGSA Obs (DIGSA; 560 g ai/ha alone) | Visual Weed Control (%) - 22 DAA DIGSA Obs (DIGSA; 560 g ai/ha alone, second part of Table 18) | Visual Weed Control (%) - 22 DAA ECHCG Obs (ECHCG [1]; 22 DAA, 140 g ai/ha alone) | Visual Weed Control (%) - 22 DAA ECHCG Obs (ECHCG [1]; 22 DAA, 280 g ai/ha alone) | Visual Weed Control (%) - 22 DAA ECHCG Obs (ECHCG [1]; 22 DAA, 560 g ai/ha alone) | Visual Weed Control (%) - 22 DAA LEFFA Obs (LEFFA; 140 g ai/ha alone) | Visual Weed Control (%) - 22 DAA LEFFA Obs (LEFFA; 280 g ai/ha alone) | Visual Weed Control (%) - 22 DAA LEFFA Obs (LEFFA; 560 g ai/ha alone)
